The compounds below were run on MCH receptors (assay: MCH receptor activity class (method not given)). Conditions: class 1-3 by percent of control at 10^-7 M or IC50.

Row | SMILES | class
1 | CN(C)c1ccnc(N[C@H]2CC[C@@H](CNC(=O)c3ccccc3I)CC2)n1 [compound 440] | 3 (Class 3 The value of percent of control at 10^−7 M was more than 60% or the value of IC50 was more than 200 nM.)
2 | Cc1ccccc1C(=O)NC[C@H]1CC[C@@H](Nc2nccc(N(C)C)n2)CC1 [compound 441] | 3 (Class 3 The value of percent of control at 10^−7 M was more than 60% or the value of IC50 was more than 200 nM.)
3 | CN(C)c1ccnc(N[C@H]2CC[C@@H](CNC(=O)c3cccc(Cl)c3Cl)CC2)n1 [compound 442] | 3 (Class 3 The value of percent of control at 10^−7 M was more than 60% or the value of IC50 was more than 200 nM.)
4 | CN(C)c1ccnc(N[C@H]2CC[C@@H](CNC(=O)c3cc(F)ccc3Cl)CC2)n1 [compound 443] | 3 (Class 3 The value of percent of control at 10^−7 M was more than 60% or the value of IC50 was more than 200 nM.)
5 | CN(C)c1ccnc(N[C@H]2CC[C@@H](CNC(=O)c3cccc4c3-c3ccccc3C4=O)CC2)n1 [compound 444, N-[(cis-4-{[4-(dimethylamino)pyrimidin-2-yl]amino}cyclohexyl)methyl]-9-oxo-9H-fluorene-4-carboxamide] | 2 (Class 2: The value of percent of control at 10^−7 M was from 40% to 60% or the value of IC′50 was from 50 nM to 200 nM.)
6 | CN(C)c1ccnc(N[C@H]2CC[C@@H](CNC(=O)c3c(F)ccc(F)c3F)CC2)n1 [compound 445] | 3 (Class 3 The value of percent of control at 10^−7 M was more than 60% or the value of IC50 was more than 200 nM.)
7 | CN(C)c1ccnc(N[C@H]2CC[C@@H](CNC(=O)c3cccc(F)c3F)CC2)n1 [compound 446] | 3 (Class 3 The value of percent of control at 10^−7 M was more than 60% or the value of IC50 was more than 200 nM.)
8 | CN(C)c1ccnc(N[C@H]2CC[C@@H](CNC(=O)c3c(F)cccc3F)CC2)n1 [compound 447] | 3 (Class 3 The value of percent of control at 10^−7 M was more than 60% or the value of IC50 was more than 200 nM.)
9 | CN(C)c1ccnc(N[C@H]2CC[C@@H](CNC(=O)c3c(F)cccc3C(F)(F)F)CC2)n1 [compound 448] | 3 (Class 3 The value of percent of control at 10^−7 M was more than 60% or the value of IC50 was more than 200 nM.)
10 | Cc1cc(C)c(C(=O)NC[C@H]2CC[C@@H](Nc3nccc(N(C)C)n3)CC2)c(C)c1 [compound 449, N-[(cis-4-{[4-(dimethylamino)pyrimidin-2-yl]amino}cyclohexyl)methyl]-2,4,6-trimethylbenzamide] | 2 (Class 2: The value of percent of control at 10^−7 M was from 40% to 60% or the value of IC′50 was from 50 nM to 200 nM.)
11 | CN(C)c1ccnc(N[C@H]2CC[C@@H](CNC(=O)c3c(F)cccc3Cl)CC2)n1 [compound 450] | 3 (Class 3 The value of percent of control at 10^−7 M was more than 60% or the value of IC50 was more than 200 nM.)
12 | CN(C)c1ccnc(N[C@H]2CC[C@@H](CNC(=O)c3c(Cl)cc(Cl)cc3Cl)CC2)n1 [compound 451] | 2 (Class 2: The value of percent of control at 10^−7 M was from 40% to 60% or the value of IC′50 was from 50 nM to 200 nM.)
13 | CN(C)c1ccnc(N[C@H]2CC[C@@H](CNC(=O)/C=C/c3ccccc3Cl)CC2)n1 [compound 452] | 2 (Class 2: The value of percent of control at 10^−7 M was from 40% to 60% or the value of IC′50 was from 50 nM to 200 nM.)
14 | Cc1ccc(Cl)c(C(=O)NC[C@H]2CC[C@@H](Nc3nccc(N(C)C)n3)CC2)c1F [compound 453] | 3 (Class 3 The value of percent of control at 10^−7 M was more than 60% or the value of IC50 was more than 200 nM.)
15 | CN(C)c1ccnc(N[C@H]2CC[C@@H](CNC(=O)c3c(F)ccc(F)c3Cl)CC2)n1 [compound 454] | 3 (Class 3 The value of percent of control at 10^−7 M was more than 60% or the value of IC50 was more than 200 nM.)
16 | Cc1cccc(C(=O)NC[C@H]2CC[C@@H](Nc3nccc(N(C)C)n3)CC2)c1C [compound 455] | 3 (Class 3 The value of percent of control at 10^−7 M was more than 60% or the value of IC50 was more than 200 nM.)
17 | COc1cccc(C(=O)N[C@H]2CC[C@@H](Nc3nc4c(c(N(C)C)n3)CCCC4)CC2)c1 [compound 456] | 1 (Class 1: The value of percent of control at 10^−7 M was less than 40% or the value of IC50 was less than 50 nM.)
18 | CN(C)c1nc(N[C@H]2CC[C@@H](NC(=O)c3cccc(Br)c3)CC2)nc2c1CCCC2 [compound 457] | 1 (Class 1: The value of percent of control at 10^−7 M was less than 40% or the value of IC50 was less than 50 nM.)
19 | CN(C)c1nc(N[C@H]2CC[C@@H](NC(=O)c3ccc(Br)cc3)CC2)nc2c1CCCC2 [compound 458] | 2 (Class 2: The value of percent of control at 10^−7 M was from 40% to 60% or the value of IC′50 was from 50 nM to 200 nM.)
20 | CN(C)c1nc(N[C@H]2CC[C@@H](NC(=O)c3ccc4nonc4c3)CC2)nc2c1CCCC2 [compound 459] | 1 (Class 1: The value of percent of control at 10^−7 M was less than 40% or the value of IC50 was less than 50 nM.)

Row | SMILES | class
21 | CN(C)c1nc(N[C@H]2CC[C@@H](NC(=O)c3cccc(Cl)c3)CC2)nc2c1CCCC2 [compound 460] | 1 (Class 1: The value of percent of control at 10^−7 M was less than 40% or the value of IC50 was less than 50 nM.)
22 | CN(C)c1nc(N[C@H]2CC[C@@H](NC(=O)c3ccc(Cl)cc3)CC2)nc2c1CCCC2 [compound 461] | 1 (Class 1: The value of percent of control at 10^−7 M was less than 40% or the value of IC50 was less than 50 nM.)
23 | CN(C)c1nc(N[C@H]2CC[C@@H](NC(=O)/C=C/c3ccccc3)CC2)nc2c1CCCC2 [compound 462] | 3 (Class 3 The value of percent of control at 10^−7 M was more than 60% or the value of IC50 was more than 200 nM.)
24 | CN(C)c1nc(N[C@H]2CC[C@@H](NC(=O)c3ccc(Cl)c([N+](=O)[O-])c3)CC2)nc2c1CCCC2 [compound 463] | 1 (Class 1: The value of percent of control at 10^−7 M was less than 40% or the value of IC50 was less than 50 nM.)
25 | CN(C)c1nc(N[C@H]2CC[C@@H](NC(=O)Cc3ccc(Cl)cc3)CC2)nc2c1CCCC2 [compound 464, 2-(4-chlorophenyl)-N-(cis-4-{[4-(dimethylamino)-5,6,7,8-tetrahydroquinazolin-2-yl]amino}cyclohexyl)acetainide] | 1 (Class 1: The value of percent of control at 10^−7 M was less than 40% or the value of IC50 was less than 50 nM.)
26 | CN(C)c1nc(N[C@H]2CC[C@@H](NC(=O)c3cccc(C#N)c3)CC2)nc2c1CCCC2 [compound 465] | 1 (Class 1: The value of percent of control at 10^−7 M was less than 40% or the value of IC50 was less than 50 nM.)
27 | CN(C)c1nc(N[C@H]2CC[C@@H](NC(=O)c3cc(Cl)cc(Cl)c3)CC2)nc2c1CCCC2 [compound 466, 3,5-dichloro-N-(cis-4-{[4-(dimethylamino)-5,6,7,8-tetrahydroquinazolin-2-yl]amino}cyclohexyl)benzamide] | 1 (Class 1: The value of percent of control at 10^−7 M was less than 40% or the value of IC50 was less than 50 nM.)
28 | CN(C)c1nc(N[C@H]2CC[C@@H](NC(=O)c3ccc(Cl)c(Cl)c3)CC2)nc2c1CCCC2 [compound 467, 3,4-dichloro-N-(cis-4-{[4-(dimethylamino)-5,6,7,8-tetrahydroquinazolin-2-yl]amino}cyclohexyl)benzamide] | 1 (Class 1: The value of percent of control at 10^−7 M was less than 40% or the value of IC50 was less than 50 nM.)
29 | CN(C)c1nc(N[C@H]2CC[C@@H](NC(=O)C(c3ccccc3)c3ccccc3)CC2)nc2c1CCCC2 [compound 468] | 1 (Class 1: The value of percent of control at 10^−7 M was less than 40% or the value of IC50 was less than 50 nM.)
30 | CN(C)c1nc(N[C@H]2CC[C@@H](NC(=O)c3ccc(F)c(F)c3)CC2)nc2c1CCCC2 [compound 469] | 1 (Class 1: The value of percent of control at 10^−7 M was less than 40% or the value of IC50 was less than 50 nM.)
31 | CN(C)c1nc(N[C@H]2CC[C@@H](NC(=O)c3cc(F)cc(F)c3)CC2)nc2c1CCCC2 [compound 470] | 1 (Class 1: The value of percent of control at 10^−7 M was less than 40% or the value of IC50 was less than 50 nM.)
32 | COc1ccc(OC)c(CC(=O)N[C@H]2CC[C@@H](Nc3nc4c(c(N(C)C)n3)CCCC4)CC2)c1 [compound 471] | 3 (Class 3 The value of percent of control at 10^−7 M was more than 60% or the value of IC50 was more than 200 nM.)
33 | CCSc1ncccc1C(=O)N[C@H]1CC[C@@H](Nc2nc3c(c(N(C)C)n2)CCCC3)CC1 [compound 472] | 3 (Class 3 The value of percent of control at 10^−7 M was more than 60% or the value of IC50 was more than 200 nM.)
34 | CN(C)c1nc(N[C@H]2CC[C@@H](NC(=O)c3ccc(F)cc3)CC2)nc2c1CCCC2 [compound 473] | 1 (Class 1: The value of percent of control at 10^−7 M was less than 40% or the value of IC50 was less than 50 nM.)
35 | CN(C)c1nc(N[C@H]2CC[C@@H](NC(=O)c3cc(F)cc(C(F)(F)F)c3)CC2)nc2c1CCCC2 [compound 474] | 1 (Class 1: The value of percent of control at 10^−7 M was less than 40% or the value of IC50 was less than 50 nM.)
36 | CN(C)c1nc(N[C@H]2CC[C@@H](NC(=O)c3cc(F)c(Cl)cc3Cl)CC2)nc2c1CCCC2 [compound 475] | 3 (Class 3 The value of percent of control at 10^−7 M was more than 60% or the value of IC50 was more than 200 nM.)
37 | CCCCCC(=O)N[C@H]1CC[C@@H](Nc2nc3c(c(N(C)C)n2)CCCC3)CC1 [compound 476] | 2 (Class 2: The value of percent of control at 10^−7 M was from 40% to 60% or the value of IC′50 was from 50 nM to 200 nM.)
38 | CN(C)c1nc(N[C@H]2CC[C@@H](NC(=O)c3ccc(I)cc3)CC2)nc2c1CCCC2 [compound 477] | 3 (Class 3 The value of percent of control at 10^−7 M was more than 60% or the value of IC50 was more than 200 nM.)
39 | CSc1ncccc1C(=O)N[C@H]1CC[C@@H](Nc2nc3c(c(N(C)C)n2)CCCC3)CC1 [compound 478] | 3 (Class 3 The value of percent of control at 10^−7 M was more than 60% or the value of IC50 was more than 200 nM.)
40 | Cc1ccc(C(=O)N[C@H]2CC[C@@H](Nc3nc4c(c(N(C)C)n3)CCCC4)CC2)cc1[N+](=O)[O-] [compound 479] | 1 (Class 1: The value of percent of control at 10^−7 M was less than 40% or the value of IC50 was less than 50 nM.)

— US20050197350A1, “Novel quinoline, tetrahydroquinazoline, and pyrimidine derivatives and methods of treatment related to the use thereof” (TAISHO PHARMACEUTICAL CO., LTD., priority 2003, published 2005)
